Laboratory results as given in ChEMBL document CHEMBL1806472, “Nobiletin metabolites: synthesis and inhibitory activity against matrix metalloproteinase-9 production” (Bioorg Med Chem Lett, 2011).

How the values were obtained:
[1] = Inhibition of PMA-induced proMMP9 production in human SRA 01/04 cells after 24 hrs by SDS-PAGE analysis; type: functional, cell-based
[2] = Inhibition of TNF-alpha-induced proMMP9 production in human SRA 01/04 cells after 24 hrs by SDS-PAGE analysis; type: functional, cell-based

| IC50 [1] [µM] | IC50 [2] [µM] | SMILES |
| --- | --- | --- |
| 3.7 | 5.5 | COc1cc(-c2cc(=O)c3c(OC)c(OC)c(OC)c(OC)c3o2)ccc1O |
| 12.3 | 10.8 | COc1c(OC)c(OC)c2c(=O)cc(-c3ccc(O)c(O)c3)oc2c1OC |
| 16.9 | 16.4 | COc1ccc(-c2cc(=O)c3c(OC)c(OC)c(OC)c(OC)c3o2)cc1O |
| 20.9 | 17 | COc1ccc(-c2cc(=O)c3c(OC)c(OC)c(OC)c(OC)c3o2)cc1OC [NOBILETIN] |
